Assay results: ChEMBL document CHEMBL5365461, “Degradation of Cyclin-Dependent Kinase 9/Cyclin T1 by Optimized Microtubule-Associated Protein 1 Light Chain 3 Beta-Recruiting Coumarin Analogs” (J Med Chem, 2023)
The source made the active and inactive calls. No cut-off for these calls is given here.

How the values were obtained:
[1] = biological target: Cyclin-dependent kinase 9 (Homo sapiens) (UniProt P50750); assay: (§1) Inhibition of GST-fused human full-length CDK9 (1 to 372(end) residues)/N-terminal GST-fused His-tagged human full-length CyclinT1 (1 to 726(end) residues) expressed in baculovirus expression system at 10 nM using CDK7/9 tide as substrate incubated for 120 mins in presence of ATP by ADP-Glo Kinase assay relative to control
Sequence of Cyclin-dependent kinase 9 (Homo sapiens) (P50750 whole entry, the tested form may be a part): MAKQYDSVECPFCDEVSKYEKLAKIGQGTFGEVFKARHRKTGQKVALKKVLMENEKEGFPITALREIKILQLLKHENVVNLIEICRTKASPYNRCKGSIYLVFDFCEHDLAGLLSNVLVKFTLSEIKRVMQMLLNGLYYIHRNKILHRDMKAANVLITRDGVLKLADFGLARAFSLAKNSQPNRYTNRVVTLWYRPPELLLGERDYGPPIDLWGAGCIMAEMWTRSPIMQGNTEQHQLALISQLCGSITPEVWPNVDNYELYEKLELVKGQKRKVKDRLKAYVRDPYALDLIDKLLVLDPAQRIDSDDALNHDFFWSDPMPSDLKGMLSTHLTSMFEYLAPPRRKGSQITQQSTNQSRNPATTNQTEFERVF

[2] = biological target: CDK9/cyclin T1 (Homo sapiens) (UniProt O60563+P50750); assay: Induction of CDK9/CyclinT1 degradation in human U2932 cells at 100 nM measured after 24 hrs by immunoblotting analysis; type: cell-based
[3] = biological target: Cyclin-dependent kinase 9 (Homo sapiens) (UniProt P50750); assay: as §1, with “100” for “10”
[4] = system: U2932; assay: Cytotoxicity against human U2932 cells assessed as inhibition of cell growth measured after 72 hrs by CCK-8 assay; type: functional, cell-based; conditions: U2932, 72 h
[5] = system: U2932; assay: Induction of apoptosis in human U2932 cells assessed as late apoptotic cells at 1000 nM incubated for 24 hrs by AnnexinV-FITC/PI staining based flow cytometry analysis (reference value: 5.95%); type: functional
[6] = system: U2932; assay: Induction of apoptosis in human U2932 cells assessed as early apoptotic cells at 1000 nM incubated for 24 hrs by AnnexinV-FITC/PI staining based flow cytometry analysis (reference value: 6.20%); type: functional
[7] = system: U2932; assay: Induction of apoptosis in human U2932 cells assessed as viable cells at 1000 nM incubated for 24 hrs by AnnexinV-FITC/PI staining based flow cytometry analysis (reference value: 86.9%); type: functional; conditions: read-out: Activity
[8] = system: U2932; assay: Induction of apoptosis in human U2932 cells assessed as necrotic cells at 1000 nM incubated for 24 hrs by AnnexinV-FITC/PI staining based flow cytometry analysis (reference value: 0.92%); type: functional

| inhibition [1] [%] | Activity [2] | inhibition [3] [%] | SMILES | IC50 [4] [µM] | Activity [5] [%] | Activity [6] [%] | viability at 1 µM [7] [%] | Activity [8] [%] |
| --- | --- | --- | --- | --- | --- | --- | --- | --- |
| 45 | Active | 78 | CC(C)(C)c1cnc(CSc2cnc(NC(=O)C3CCN(CCCOc4cc(O)c5ccc(=O)oc5c4)CC3)s2)o1 | 0.157 |  |  |  |  |
| -3 | Active | 52 | CC(C)(C)c1cnc(CSc2cnc(NC(=O)C3CCN(CCCOc4cc(O)cc5oc(=O)ccc45)CC3)s2)o1 | 0.125 |  |  |  |  |
|  | Active | 55 | Cc1cc(=O)oc2cc(O)cc(OCCCN3CCC(C(=O)Nc4ncc(SCc5ncc(C(C)(C)C)o5)s4)CC3)c12 | 0.157 |  |  |  |  |
| 26 |  | 73 | Cc1cc(=O)oc2cc(OCCCCN3CCC(C(=O)Nc4ncc(SCc5ncc(C(C)(C)C)o5)s4)CC3)cc(O)c12 | 0.133 |  |  |  |  |
| -8 |  | 51 | CC(C)(C)c1cnc(CSc2cnc(NC(=O)C3CCN(CCCOc4cc(O)cc5oc(=O)cc(-c6ccccc6)c45)CC3)s2)o1 | 0.624 |  |  |  |  |
| 23 |  | 73 | Cc1cc(=O)oc2cc(O)cc(OCCN3CCC(C(=O)Nc4ncc(SCc5ncc(C(C)(C)C)o5)s4)CC3)c12 | 0.424 |  |  |  |  |
|  | Active | 80 | CC(C)(C)c1cnc(CSc2cnc(NC(=O)C3CCN(CCCOc4cc(O)c5c(-c6ccc(F)cc6)cc(=O)oc5c4)CC3)s2)o1 | 0.124 |  |  |  |  |
| 15 | Active | 69 | CC(C)(C)c1cnc(CSc2cnc(NC(=O)C3CCN(CCCOc4cc(O)c5c(-c6ccncc6)cc(=O)oc5c4)CC3)s2)o1 | 0.192 |  |  |  |  |
|  |  | 55 | CC(C)(C)c1cnc(CSc2cnc(NC(=O)C3CCN(CCCOc4cc(O)cc5oc(=O)cc(-c6ccncc6)c45)CC3)s2)o1 | 0.484 |  |  |  |  |
| 4 | Active | 39 | CC(C)(C)c1cnc(CSc2cnc(NC(=O)C3CCN(CC(=O)NCCOCCOCCOCCNc4cccc5c4C(=O)N(C4CCC(=O)NC4=O)C5=O)CC3)s2)o1 (centres undefined) | 0.306 | 22.3 | 8.93 | 67.2 | 1.55 |
| 6 |  | 69 | CC(C)(C)c1cnc(CSc2cnc(NC(=O)C3CCN(CCCOc4ccc5c(-c6ccccc6)cc(=O)oc5c4)CC3)s2)o1 | 0.32 |  |  |  |  |
|  |  | 68 | CC(C)(C)c1cnc(CSc2cnc(NC(=O)C3CCN(CCCOc4cc(O)cc5oc(=O)cc(-c6ccc(F)cc6)c45)CC3)s2)o1 | 0.346 |  |  |  |  |
| -8 |  | 36 | CC(C)(C)c1cnc(CSc2cnc(NC(=O)C3CCN(CCCOc4cccc5oc(=O)cc(-c6ccccc6)c45)CC3)s2)o1 | 0.534 |  |  |  |  |
| 2 |  | 57 | Cc1cc(=O)oc2cc(OCCCCCN3CCC(C(=O)Nc4ncc(SCc5ncc(C(C)(C)C)o5)s4)CC3)cc(O)c12 | 0.098 |  |  |  |  |
| 24 |  | 83 | CC(C)(C)c1cnc(CSc2cnc(NC(=O)C3CCN(CCCCCOc4cc(O)cc5oc(=O)ccc45)CC3)s2)o1 | 0.109 |  |  |  |  |
| 5 |  | 63 | Cc1cc(=O)oc2cc(O)cc(OCCOCCN3CCC(C(=O)Nc4ncc(SCc5ncc(C(C)(C)C)o5)s4)CC3)c12 | 0.18 |  |  |  |  |
| -4 | Active | 86 | CC(C)(C)c1cnc(CSc2cnc(NC(=O)C3CCN(CCCOc4cc(O)c5c(-c6ccccc6)cc(=O)oc5c4)CC3)s2)o1 | 0.12 |  |  |  |  |
| 9 |  | 79 | Cc1cc(=O)oc2cc(O)cc(OCCCCN3CCC(C(=O)Nc4ncc(SCc5ncc(C(C)(C)C)o5)s4)CC3)c12 | 0.142 |  |  |  |  |
| 33 | Active | 83 | COc1ccc(-c2cc(=O)oc3cc(OCCCN4CCC(C(=O)Nc5ncc(SCc6ncc(C(C)(C)C)o6)s5)CC4)cc(O)c23)cc1 | 0.104 |  |  |  |  |
| 28 |  | 71 | Cc1cc(=O)oc2cc(OCCOCCN3CCC(C(=O)Nc4ncc(SCc5ncc(C(C)(C)C)o5)s4)CC3)cc(O)c12 | 0.145 |  |  |  |  |
| 37 |  | 69 | Cc1cc(=O)oc2cc(OCCN3CCC(C(=O)Nc4ncc(SCc5ncc(C(C)(C)C)o5)s4)CC3)cc(O)c12 | 0.155 |  |  |  |  |
| -5 |  | 61 | COc1ccc(-c2cc(=O)oc3cc(O)cc(OCCCN4CCC(C(=O)Nc5ncc(SCc6ncc(C(C)(C)C)o6)s5)CC4)c23)cc1 | 0.604 |  |  |  |  |
